Measurements taken from US11766409B2, “Core-shell polymer nanoparticle” (THE UNIVERSITY OF QUEENSLAND, priority 2018, dated 2023).

Test system: tumor-bearing mice
Assay: In vivo anti-tumor therapeutic effect in tumor-bearing mice
Details: day 25 compared to day 0 post-injection; intravenous, every 72 hours, 5 injections
Procedure: In vivo mice experiments were conducted to evaluate the anti-tumor therapeutic effects of PTX-loaded high (55K/SH-PTX; 39.6% drug loading) and low-drug loading formulations (55K/SH-PTX; 3.5% drug loading) in tumor-bearing mice. Four formulations (PBS, Free PTX, High DL NP, and Low DL NP_where DL is drug loading and NP is core-shell polymer nanoparticle) were injected intravenously every 72 hours for 5 injections in total. The body weight and tumor volume of the mice were monitored every two days. […] The weight increase was higher than the Low DL NP group (4.4% increase) and Free PTX group (2.9% increase).

With `CC(=O)O[C@H]1C(=O)[C@@]2(C)[C@H]([C@H](OC(=O)c3ccccc3)[C@]3(O)C[C@H](OC(=O)[C@H](O)[C@@H](NC(=O)c4ccccc4)c4ccccc4)C(C)=C1C3(C)C)[C@]1(OC(C)=O)CO[C@@H]1C[C@@H]2O` [Free PTX, paclitaxel] the body weight increase was 2.9%.
